In patent publication US8715668B2, “Antibody selective for a tumor necrosis factor-related apoptosis-inducing ligand receptor DR5 and uses thereof” (The UAB Research Foundation, priority 2000, dated 2014):

Tests used:
MMP-1, 3, and 13 = test: ELISA of MMP production by RA synovial cells; assay type: cell-based, human; conditions: overnight; 50 ng/ml interleukin 1b, 10 ng/ml TNF-α, 50 ng/ml TRAIL, 50 ng/ml TRA-8
Method: Thus, it is possible that TRAIL, like TNF-α, may serve as a pro-inflammatory cytokine. […] The levels of the MMP-1 and MMP-3 in the culture supernatants are determined by the ELISA kits.

breast cancer lines = test: Combined cytotoxicity of TRA-8 with adriamycin; assay type: cell-based, human
CLL B cells = test: Cytotoxicity to CLL B cells in vitro; assay type: cell-based, human; conditions: compared to normal primary B cells
RA synovial cells = test: Cell viability of primary cultured RA synovial cells; assay type: cell-based, human; conditions: high concentrations (>50 ng/ml)
From the text: (§1) Cell viability is the percentage of the cpm of treated cells versus the cpm of untreated cells.
(§2) The expression of DR5 on a panel of eight primary cultured synovial cells from patients with RA is compared with that on eight primary cultured synovial cells from patients with osteoarthritis (hereinafter referred to as “OA”). The eight human primary RA synovial cell cultures RA-1014, RA-1016, RA-1021, RA-512, RA-707, RA-811, RA-716, and RA-929 are kindly provided by Dr. M. Ohtsuki (Sankyo Co. Ltd., Tokyo, Japan) and cultured in DMEM supplemented with 10% FCS, penicillin, streptomycin, and glutamine. The […] OA synovial cell primary cell cultures are isolated from the synovial tissues of OA patients by a standard collagenase method and cultured under the same conditions. The passage number of all primary cells is under 10. The expression of DR5 is determined by FACs analysis as described in Example 5.

Jurkat cells [1] = test: Jurkat cell viability (ATPLite, MTT, PI exclusion); assay type: cell-based, human; conditions: overnight, TRAIL plus crosslinker
Method: (§3) Cell viability is determined using (1) the ATPLite® kit according to the manufacturer's instructions (Packard Instruments, Meriden, Conn.); (2) the MTT Cell proliferation/viability kit (Sigma); or (3) PI staining of dead cells and analyzed by flow cytometry. At end of culture, cells are stained with 10 μg/ml PI and PI negative cells are gated as viable cells. For analysis of condensed nuclei of hepatocytes, cells are stained with 10 ng/ml Hoechst 33352 (Molecular Probes) and analyzed by flow cytometry.

OA synovial cells = test: Cell viability of primary cultured OA synovial cells; assay type: cell-based, human; conditions: OA72M
From the text: as §1, §2

liver = test: Induction of hepatitis in vivo by tetracycline-inducible adenoviral vectors; parameters: species or system B6 mice; conditions: Ad/TRAIL inoculated mice; 10 μg soluble human TRAIL
Method: 8-10 week-old female B6 mice are intravenously injected with 10^9 pfu of Ad/hTRAIL with the equal number of Ad/Tet-on. Mice are fed with different concentrations of tetracycline in their drinking water immediately after inoculation of adenoviral vectors. Liver injury is determined by serum levels of AST using an AST diagnostic kit (Sigma). Expression of TRAIL is determined by Northern blot analysis.

DR4 = target: T1, DR4 (Homo sapiens, UniProt O00220); test: ELISA binding to immobilized DR4-Ig fusion protein
T1 construct: The soluble recombinant human DR4, DcR1, DcR2, TNFR1, R4, and Fas molecules used are human IgG1 fusion proteins; human IgG1 Fc
Method: ELISA plates are coated with 2 μg/ml of DR4-Ig or DR5-Ig fusion protein overnight. […] The reactions are developed by TMB substrate buffer and measured by the Benchmark Microplate Reader (BioRad). The Kd values are estimated by the one-site binding model of non-linear regression using GraphPad Prism® software (GraphPad Software, San Diego, Calif.).

normal human hepatocytes = test: Viability of normal human hepatocytes (ATPLite); assay type: cell-based
From the text: For 24-hour cell viability assays, fresh normal human hepatocytes in 96-well plates were purchased from In Vitro Technology (Baltimore, Md.). […] For 6-hour viability assays, normal hepatocytes or hepatocellular cancer cells are isolated from fresh surgical specimens collected from UAB Tissue Procurement Center. All reagents for isolation of human hepatocytes including hepatocytes perfusion buffer, digest medium, washing medium, and attachment medium were purchased from Gibco. The tissue slides are digested in the Hepatocyte Digest Medium at 37° C. with shaking (50 rpm) for one hour. The isolated hepatocytes are harvested by low speed centrifugation (50 g, 3 min), and washed with the Hepatocyte Washing Medium six times. Single cell suspension of hepatocytes are cultured in the Attachment Medium containing 10% FCS in 96-well Matrigel plates (BD) for six hours. Non-attached hepatocytes are removed by twice washing with pre-warmed attachment medium.

Hs683 = test: Apoptosis by ATPLite after overnight incubation; assay type: cell-based, human
Method: as §3

U87 = test: Apoptosis by ATPLite after overnight incubation; assay type: cell-based, human
Method: as §3

Daudi = test: Apoptosis by ATPLite after overnight incubation; assay type: cell-based, human
Method: as §3

H-9 = test: Apoptosis by ATPLite after overnight incubation; assay type: cell-based, human
Method: as §3

SKW6.4 = test: Apoptosis by ATPLite after overnight incubation; assay type: cell-based, human
Method: as §3

U251-MG = test: Apoptosis by ATPLite after overnight incubation; assay type: cell-based, human
Method: as §3

CEM-6 = test: Apoptosis by ATPLite after overnight incubation; assay type: cell-based, human
Method: as §3

Raji = test: Apoptosis by ATPLite after overnight incubation; assay type: cell-based, human
Method: as §3

primary B cells = test: Apoptosis by ATPLite after overnight incubation; assay type: cell-based, human
Method: as §3

Molt-4 = test: Apoptosis by ATPLite after overnight incubation; assay type: cell-based, human
Method: as §3

EB-3 = test: Apoptosis by ATPLite after overnight incubation; assay type: cell-based, human
Method: as §3

U937 = test: Apoptosis by ATPLite after overnight incubation; assay type: cell-based, human
Method: as §3

Jurkat cells [2] = test: Apoptosis-inducing activity of humanized antibody on Jurkat cells (XTT); assay type: cell-based, human; conditions: 12 hours; serial 2-fold dilution from 100 ng/ml
Method: Jurkat cells cultured in RPMI1640 medium with 10% FCS (Gibco BRL) at 37° C. for 3 days in the presence of 5% CO2 are dispensed into each well of a 96-well microplate (Sumitomo Bakelite) at 50 μl per well. […] Each of the solutions of the expression products thus adjusted to 100 ng/ml is used to produce serial dilutions by repeating serial 2-fold dilution with RPMI1640 containing 10% FCS. […] After reacting at 37° C. for 12 hours, 50 μl of 25 μM PMS (phenazine methosulfate; Sigma Chemical Co.) containing 1 mg/ml XTT (2,3-bis [2-methoxy-4-nitro-5-sulfophenyl]-2H-tetrazolium-5-carboxyaniride inner salt; Sigma Chemical Co.) is added (final concentrations of 250 μg/ml for XTT and 5 μM for PMS). After incubating for 3 hours, the absorbance at 450 nm of each well is measured to calculate the cell viability by using the reduction ability of mitochondria as the index.
The viability of the cells in each well is calculated according to the following formula: Viability(%)=100×(a−b)/(c−b) wherein “a” is the measurement of a test well, “b” is the measurement of a well with no cells, and “c” is the measurement of a well with no antibody added.
Jurkat cells cultured in RPMI1640 medium with 10% FCS (Gibco BRL) at 37° C. for 3 days in the presence of 5% CO2 are dispensed into each well of a 96-well microplate (Sumitomo Bakelite) at 50 μl per well. […]

T1 sequence (O00220 24-239 limits assumed): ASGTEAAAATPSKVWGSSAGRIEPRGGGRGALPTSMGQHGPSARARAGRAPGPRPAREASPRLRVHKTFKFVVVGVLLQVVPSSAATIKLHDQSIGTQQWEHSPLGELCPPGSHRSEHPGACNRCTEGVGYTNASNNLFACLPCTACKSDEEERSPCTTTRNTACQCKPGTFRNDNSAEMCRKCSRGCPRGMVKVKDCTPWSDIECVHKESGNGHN

TNF-α
production/release of MMPs (MMP-1, 3, and 13): increased

COc1cccc2c1C(=O)c1c(O)c3c(c(O)c1C2=O)C[C@@](O)(C(=O)CO)C[C@@H]3O[C@H]1C[C@H](N)[C@H](O)[C@H](C)O1 [adriamycin]
effect on TRA-8-induced apoptosis (breast cancer lines; high doses of adriamycin): additive effect | effect on TRA-8-induced apoptosis (breast cancer lines; low doses of adriamycin, some TRA-8 resistant lines): synergistically enhance

IL-1b: proinflammatory cytokine
production/release of MMPs (MMP-1, 3, and 13): increased

Cn1cc(C2=C(c3cn(CCCN)c4ccccc34)C(=O)NC2=O)c2ccccc21 [BisVIII, Bisindolylmaleimide VIII]
susceptibility of CLL B cells (CLL B cells): sensitive

TRAIL: Soluble recombinant human TRAIL (aa residues 95 to 281) fused to a FLAG-tag, Alexis; used with anti-FLAG crosslinker
cell death (RA synovial cells; RA929): ~100% | cell death (RA synovial cells; RA-716): ~100% | cell death (RA synovial cells; RA-811): ~100% | cell death (RA synovial cells; RA-1014): ~100% | susceptibility to apoptosis (Jurkat cells [1]): highly susceptible | susceptibility to apoptosis (OA synovial cells): completely resistant | liver injury after intravenous injection (liver): did not exhibit increased liver injury | binding activity to DR4 (DR4): bound to DR4 | hepatocytes killed (normal human hepatocytes; 6-hour culture period, 500 ng/ml TRAIL): Over 20% | hepatocytes killed (normal human hepatocytes; end of 24-hour culture, 1 μg/ml, TRAIL plus crosslinker): more than 80% | production/release of MMPs (MMP-1, 3, and 13): not associated with increased release | susceptibility to apoptosis (Hs683): resistant | susceptibility to apoptosis (U87): exhibited sensitivity | susceptibility to apoptosis (Daudi): much less susceptible | susceptibility to apoptosis (H-9): resistant | susceptibility to apoptosis (SKW6.4): very susceptible | susceptibility to apoptosis (U251-MG): resistant | susceptibility to apoptosis (CEM-6): highly susceptible | susceptibility to apoptosis (Raji): very susceptible | susceptibility to apoptosis (primary B cells): did not undergo apoptosis | susceptibility to apoptosis (Molt-4): partially susceptible | susceptibility to apoptosis (EB-3): very susceptible | susceptibility to apoptosis (U937): partially susceptible

B1: humanized TRA-8: humanized TRA-8, cotransfection of pHB14-1 and pSR/M2-1: H2 type heavy chain (SEQ ID No. 31), LM2 light chain (SEQ ID No. 46) (antibody)
VH: EVMLVESGGGLVQPGGSLRLSCAASGFTFSSYVMSWVRQAPGKGLEWVATISSGGSYTYYPDSVKGRFTISRDNAKNTLYLQMNSLRAEDTAVYYCARRGDSMITTDYWGQGTLVTVSS
light: DIVMTQSPSSLSASVGDRVTITCKASQDVGTAVAWYQQKPGKAPKLLIYWASTRHTGVPSRFSGSGSGTDFTLTISSLQPEDFATYYCQQYSSYRTFGQGTKVEIKRTVAAPSVFIFPPSDEQLKSGTASVVCLLNNFYPREAKVQWKVDNALQSGNSQESVTEQDSKDSTYSLSSTLTLSKADYEKHKVYACEVTHQGLSSPVTKSFNRGEC
induction of apoptosis (Jurkat cells [2]): induce apoptosis
